We go through 18 molecules from patent US20260297094A1, “Tetracyclic Compounds as SMARCA2 and/or SMARCA4 Degraders” (Aurigene Oncology Limited, priority 2023, published 2026).

One assay has as its system MV-4-11 cells. Description: Anti proliferative activity in MV-4-11 cells by Cell Titer Glo (Promega) assay. The assay is classed as cell-based. Particulars: 3 days, CellTiter-Glo. The procedure: Example-P2: Determination of Anti Proliferative Activity of Compounds in Cell Lines MV-4-11 by Cell Titer Glo® (Promega) Assay
MV-4-11 (CRL-9591™) cells were seeded in 96 well plate flat black clear bottom plates (Corning, Cat. No 3904) using complete DMEM Medium. Next day, selected compounds of the present invention were added to cells from 10 mM stocks made in DMSO (Sigma Cat no. D2650). Each concentration of compound was tested in triplicate with DMSO concentration at a final percentage not exceeding 0.3 in the cells. After the incubation of MV-4-11 cells with compound for 3 days; assay was terminated using 100 μl of CellTiter Glo® reagent (Promega, Cat. no G7572). CellTiter-Glo® Luminescent reagent determines the number of viable cells based on quantitation of ATP present which is an indicator of cell number and metabolic activity. Luminescence readings were taken in Victor-5 instrument. Percent inhibition of proliferation was calculated using formula, % inhibition=100−(luminescence value of test/luminescence value of DMSO control)*100. DMSO control (0%)=Cells in complete media with DMSO; blank=Media alone containing DMSO. EC50 was calculated using graph pad prism software.
(ATP-based viability assays read luminescence as a measure of living cells.)

For the next assay, the system named is SK-MEL-5 cells. Description: Anti proliferative activity in SK-MEL-5 cells by Cell Titer Glo (Promega) assay. Format: cell-based. Particulars: retreatment on Day 4, terminated on day 8, CellTiter-Glo. The protocol:
Example-P1: Determination of Anti Proliferative Activity of Compounds in Cell Lines SK-MEL-5 by Cell Titer Glo® (Promega) Assay
Cells were seeded into 96-well plates and the plate was incubated in 37 degrees incubator overnight. The next day, compounds were diluted 3-fold to cover 9-point concentration range in DMSO. Intermediate plate dilution was prepared in media followed with compound treatment in cells. Retreatment of cells with compound dilutions was performed on Day 4 and assay was terminated on day 8 for SK-MEL-5 cells using CellTiter-Glo and the plate was kept on orbital shaker for 20 minutes at RT. Assay was terminated on day 6 for RERF-LC-A1 without a compound retreatment. Luminescence signal was recorded on VICTOR^3 instrument. Percent inhibition of proliferation was calculated at each concentration and plotted against the compound concentration. EC50 value was calculated using GraphPad® software.

Each structure is given as a SMILES string. Where a name gives a salt, the structure may show the parent alone. A value given as a limit tells only on which side of the number the result lay.

As for `O=C1CCC(N2C(=O)c3ccc(N4CCN(c5ccc6c(c5)n(C5CCCC5)c5nc(=O)c7c(Br)cccc7n65)CC4)cc3C2=O)C(=O)N1` (stereo not drawn) [Compound 5, 5-(4-(4-bromo-7-cyclopentyl-5-oxo-5,7-dihydrobenzo[4,5]imidazo[1,2-a]quinazolin-9-yl)piperazin-1-yl)-2-(2,6-dioxopiperidin-3-yl)isoindoline-1,3-dione], the EC50 is more than 100 nM in the assay on MV-4-11 cells (Homo sapiens, MV4-11, 72 h) and more than 100 nM with SK-MEL-5 cells (Homo sapiens).

For `O=C1CCC(N2Cc3cc(C4CCN(C5CCN(c6ccc7c(c6)n(C6CCCC6)c6nc(=O)c8ccccc8n76)CC5)CC4)ccc3C2=O)C(=O)N1` (stereo not drawn) [Compound 10, 3-(5-(1′-(7-cyclopenty1-5-oxo-5,7-dihydrobenzo[4,5]imidazo[1,2-a]quinazolin-9-yl)-[1,4′-bipiperidin]-4-yl)-1-oxoisoindolin-2-yl)piperidine-2,6-dione], the EC50 is more than 100 nM in the assay on MV-4-11 cells (Homo sapiens, MV4-11, 72 h) and more than 100 nM with SK-MEL-5 cells (Homo sapiens).

With `COc1cccc2c1c(=O)nc1n(C3CCCC3)c3cc(N4CCC(N5CCC(c6ccc(NC7CCC(=O)NC7=O)cc6F)CC5)CC4)ccc3n21` (stereo not drawn) [Compound 11, 3-((4-(1′-(7-cyclopentyl-4-methoxy-5-oxo-5,7-dihydrobenzo[4,5]imidazo[1,2-a]quinazolin-9-yl)-[1,4′-bipiperidin]-4-yl)-3-fluorophenyl)amino)piperidine-2,6-dione], the EC50 in the assay with MV-4-11 cells (Homo sapiens, MV4-11, 72 h) was more than 100 nM; in the assay with SK-MEL-5 cells (Homo sapiens) it was more than 100 nM.

With `O=C1CCC(Nc2ccc(C3CCN(C4CCN(c5ccc6c(c5)n(C5CCCC5)c5nc(=O)c7c(O)cccc7n65)CC4)CC3)c(F)c2)C(=O)N1` (stereo not drawn) [Compound 12, 3-((4-(1′-(7-cyclopentyl-4-hydroxy-5-oxo-5,7-dihydrobenzo[4,5]imidazo[1,2-a]quinazolin-9-yl)-[1,4′-bipiperidin]-4-yl)-3-fluorophenyl)amino)piperidine-2,6-dione-HCl salt], the EC50 in the assay with MV-4-11 cells (Homo sapiens, MV4-11, 72 h) is more than 100 nM; with SK-MEL-5 cells (Homo sapiens) it was more than 100 nM.

For `O=C1CCC(c2ccc(C3CCN(C4CCN(c5ccc6c(c5)n(C5CCCC5)c5nc(=O)c7c(C(F)(F)F)cccc7n65)CC4)CC3)cc2)C(=O)N1` (stereo not drawn) [Compound 13, 3-(4-(1′-(7-cyclopentyl-5-oxo-4-(trifluoromethyl)-5,7-dihydrobenzo[4,5]imidazo[1,2-a]quinazolin-9-yl)-[1,4′-bipiperidin]-4-yl)phenyl)piperidine-2,6-dione], the EC50 with MV-4-11 cells (Homo sapiens, MV4-11, 72 h) was more than 100 nM; in the assay with SK-MEL-5 cells (Homo sapiens), more than 100 nM.

For the molecule `O=C1CCC(N2Cc3cc(C4CCN(C5CCN(c6ccc7c(c6)n(C6CCCC6)c6nc(=O)c8cnccc8n76)CC5)CC4)ccc3C2=O)C(=O)N1` (stereo not drawn) [Compound 19, 3-(5-(1′-(7-cyclopentyl-5-oxo-5,7-dihydrobenzo[4,5]imidazo[1,2-a]pyrido[3,4-e]pyrimidin-9-yl)-[1,4′-bipiperidin]-4-yl)-1-oxoisoindolin-2-yl)piperidine-2,6-dione], the EC50 in the assay on MV-4-11 cells (Homo sapiens, MV4-11, 72 h) is more than 100 nM; in the assay on SK-MEL-5 cells (Homo sapiens), more than 100 nM.

For the molecule `O=C1CCC(c2ccc(C3CCN(C4CCN(c5ccc6c(c5)n(C5CCCC5)c5nc(=O)c7ncccc7n65)CC4)CC3)cc2)C(=O)N1` (stereo not drawn) [Compound 24, 3-(4-(1′-(7-cyclopentyl-5-oxo-5,7-dihydrobenzo[4,5]imidazo[1,2-a]pyrido[2,3-e]pyrimidin-9-yl)-[1,4′-bipiperidin]-4-yl)phenyl)piperidine-2,6-dione], the EC50 in the assay on MV-4-11 cells (Homo sapiens, MV4-11, 72 h) was more than 100 nM; in the assay on SK-MEL-5 cells (Homo sapiens) it was more than 100 nM.

Consider `Cn1c2cc(N3CCC(N4CCC(c5ccc6c(c5)CN(C5CCC(=O)NC5=O)C6=O)CC4)CC3)ccc2n2c3cccc(Cl)c3c(=O)nc12` (stereo not drawn) [Compound 27, 3-(5-(1′-(4-chloro-7-methyl-5-oxo-5,7-dihydrobenzo[4,5]imidazo[1,2-a]quinazolin-9-yl)-[1,4′-bipiperidin]-4-yl)-1-oxoisoindolin-2-yl)piperidine-2,6-dione], for which the EC50 with MV-4-11 cells (Homo sapiens, MV4-11, 72 h) was less than 10 nM; in the assay with SK-MEL-5 cells (Homo sapiens), less than 10 nM.

With `CC(C)n1c2cc(N3CCC(N4CCC(c5ccc6c(c5)CN(C5CCC(=O)NC5=O)C6=O)CC4)CC3)ccc2n2c3cccc(Cl)c3c(=O)nc12` (stereo not drawn) [Compound 28, 3-(5-(1′-(4-chloro-7-isopropyl-5-oxo-5,7-dihydrobenzo[4,5]imidazo[1,2-a]quinazolin-9-yl)-[1,4′-bipiperidin]-4-yl)-1-oxoisoindolin-2-yl)piperidine-2,6-dione-HCl salt], the EC50 with MV-4-11 cells (Homo sapiens, MV4-11, 72 h) is less than 10 nM; in the assay with SK-MEL-5 cells (Homo sapiens), less than 10 nM.

In the case of `Nc1cccc2c1c(=O)nc1[nH]c3cc(N4CCC(N5CCC(c6ccc(C7CCC(=O)NC7=O)cc6)CC5)CC4)ccc3n12` (stereo not drawn) [Compound 31, 3-(4-(1′-(4-amino-5-oxo-5,7-dihydrobenzo[4,5]imidazo[1,2-a]quinazolin-9-yl)-[1,4′-bipiperidin]-4-yl)phenyl)piperidine-2,6-dione-TFA salt], the EC50 is more than 100 nM in the assay on MV-4-11 cells (Homo sapiens, MV4-11, 72 h) and more than 100 nM in the assay on SK-MEL-5 cells (Homo sapiens).

With `Cc1cccc2c1c(=O)nc1n(C3CCCC3)c3cc(N4CCC(N5CCC(c6ccc(NC7CCC(=O)NC7=O)cc6F)CC5)CC4)ccc3n21` (stereo not drawn) [Compound 33, 3-((4-(1′-(7-cyclopentyl-4-methyl-5-oxo-5,7-dihydrobenzo[4,5]imidazo[1,2-a]quinazolin-9-yl)-[1,4′-bipiperidin]-4-yl)-3-fluorophenyl)amino)piperidine-2,6-dione], the EC50 in the assay with MV-4-11 cells (Homo sapiens, MV4-11, 72 h) is more than 100 nM; in the assay on SK-MEL-5 cells (Homo sapiens), more than 100 nM.

On to `O=C1CCC(Nc2ccc(C3CCN(C4CCN(c5ccc6c(c5)[nH]c5nc(=O)c7c(Br)cccc7n56)CC4)CC3)c(F)c2)C(=O)N1` (stereo not drawn) [Compound 34, 3-((4-(1′-(4-bromo-5-oxo-5,7-dihydrobenzo[4,5]imidazo[1,2-a]quinazolin-9-yl)-[1,4′-bipiperidin]-4-yl)-3-fluorophenyl)amino)piperidine-2,6-dione], for which the EC50 is more than 100 nM in the assay with MV-4-11 cells (Homo sapiens, MV4-11, 72 h) and more than 100 nM with SK-MEL-5 cells (Homo sapiens).

With `Nc1cccc2c1c(=O)nc1n(C3CC3)c3cc(N4CCC(N5CCN(c6ccc(NC7CCC(=O)NC7=O)cc6F)CC5)CC4)ccc3n21` (stereo not drawn) [Compound 37, 3-((4-(4-(1-(4-amino-7-cyclopropyl-5-oxo-5,7-dihydrobenzo[4,5]imidazo[1,2-a]quinazolin-9-yl)piperidin-4-yl)piperazin-1-yl)-3-fluorophenyl)amino)piperidine-2,6-dione], the EC50 in the assay with MV-4-11 cells (Homo sapiens, MV4-11, 72 h) was more than 100 nM; in the assay with SK-MEL-5 cells (Homo sapiens) it was more than 100 nM.

As for `O=C1CCC(Nc2ccc(C3CCN(C4CCN(c5ccc6c(c5)n(C5CCCC5)c5nc(=O)c7c(Cl)cccc7n65)CC4)CC3)c(F)c2)C(=O)N1` (stereo not drawn) [Compound 38, 3-((4-(1′-(4-chloro-7-cyclopentyl-5-oxo-5,7-dihydrobenzo[4,5]imidazo[1,2-a]quinazolin-9-yl)-[1,4′-bipiperidin]-4-yl)-3-fluorophenyl)amino)piperidine-2,6-dione], the EC50 in the assay on MV-4-11 cells and in the assay with SK-MEL-5 cells was less than 10 nM in each case.

Consider `O=C1CCC(NC(=O)c2ccc(C3CCN(C4CCN(c5ccc6c(c5)n(C5CCCC5)c5nc(=O)c7c(Cl)cccc7n65)CC4)CC3)cc2F)C(=O)N1` (stereo not drawn) [Compound 39, 4-(1′-(4-chloro-7-cyclopentyl-5-oxo-5,7-dihydrobenzo[4,5]imidazo[1,2-a]quinazolin-9-yl)-[1,4′-bipiperidin]-4-yl)-N-(2,6-dioxopiperidin-3-yl)-2-fluorobenzamide], for which the EC50 was more than 100 nM in the assay with MV-4-11 cells (Homo sapiens, MV4-11, 72 h) and more than 100 nM in the assay with SK-MEL-5 cells (Homo sapiens).

With `Cn1nc(N2CCC(=O)NC2=O)c2cc(F)c(N3CCN(C4CCN(c5ccc6c(c5)n(C)c5nc(=O)c7c(N)cccc7n65)CC4)CC3)cc21` [Compound 41, 1-(6-(4-(1-(4-amino-7-methyl-5-oxo-5,7-dihydrobenzo[4,5]imidazo[1,2-a]quinazolin-9-yl)piperidin-4-yl)piperazin-1-yl)-5-fluoro-1-methyl-1H-indazol-3-yl)dihydropyrimidine-2,4(1H,3H)-dione], the concentration for a half-maximal effect (EC50) was more than 100 nM in the assay with MV-4-11 cells (Homo sapiens, MV4-11, 72 h) and more than 100 nM in the assay with SK-MEL-5 cells (Homo sapiens).

For `Cn1c2cc(N3CCC(N4CCN(c5ccc6c(c5)CN(C5CCC(=O)NC5=O)C6=O)CC4)CC3)ccc2n2c3cccc(N)c3c(=O)nc12` (stereo not drawn) [Compound 42, 3-(5-(4-(1-(4-amino-7-methyl-5-oxo-5,7-dihydrobenzo[4,5]imidazo[1,2-a]quinazolin-9-yl)piperidin-4-yl)piperazin-1-yl)-1-oxoisoindolin-2-yl)piperidine-2,6-dione], the EC50 in the assay on MV-4-11 cells (Homo sapiens, MV4-11, 72 h) is more than 100 nM; in the assay on SK-MEL-5 cells (Homo sapiens) it was more than 100 nM.

On to `Cn1c2cc(N3CCN(CC4CCN(c5ccc6c(c5)CN(C5CCC(=O)NC5=O)C6=O)CC4)CC3)ccc2n2c3cccc(N)c3c(=O)nc12` (stereo not drawn) [Compound 43, 3-(5-(4-((4-(4-amino-7-methyl-5-oxo-5,7-dihydrobenzo[4,5]imidazo[1,2-a]quinazolin-9-yl)piperazin-1-yl)methyl)piperidin-1-yl)-1-oxoisoindolin-2-yl)piperidine-2,6-dione], for which the EC50 in the assay on MV-4-11 cells (Homo sapiens, MV4-11, 72 h) was more than 100 nM; with SK-MEL-5 cells (Homo sapiens), more than 100 nM.

Usually EC50 stands for the concentration needed to bring the measured effect to its halfway point. A higher EC50 goes with weaker potency.
